{
  "source": "patent US11807780B2",
  "about": "“Aqueous coatings containing biosurfactants as bio-adjuvants and methods for using same” (RHODIA OPERATIONS, priority 2018, dated 2023)",
  "system": "Pseudomonas aeruginosa ATCC 9027",
  "assay": "MIC determination by two fold dilutions in 96 well microtiter plates, biocide with and without bio-surfactant",
  "type": "cell-based",
  "details": "for MIC: Pseudomonas aeruginosa; for microbial growth (absorbance at 660 nm): Table 3 / FIG. 5, triplicate wells",
  "description": "In microbiology, minimum inhibitory concentration (MIC) is defined as the lowest concentration of an antimicrobial that will inhibit the growth of an microorganism after overnight or long incubation. Minimum inhibitory concentrations are important in diagnostic laboratories to confirm resistance of microorganisms to an antimicrobial agent and also to monitor the activity of new antimicrobial agents. A lower MIC is an indication of a better antimicrobial agent, as less is generally needed for acceptable performance. An MIC determination is generally regarded as a basic or standard laboratory measurement of the activity of an antimicrobial agent against an organism.\nBiocides tested: • Methylchloroisothiazolinone/Methylisothiazolinone (CMIT/MIT) [also known as KATHON]: • Benzisothiazolinone [BIT] • Methylisothiazolinone [MIT]\nMicroorganism Used: Pseudomonas aeruginosa ATCC 9027\nBiosurfactants tested: • 1. R95D90 (SigmaAldrich) 95% pure rhamnolipid with 90% Di-rhamnolipid dominant • 2. R95M90 (SigmaAldrich) 95% pure rhamnolipid with 90% Mono-rhamnolipid dominant • 3. Natural Saponin\nMIC test is a method for determining the Minimum Inhibitory Concentration of a compound required to inhibit or kill the test organisms. MIC50 test is a method for determining the Minimum Inhibitory Concentration of a compound required to inhibit or kill the 50% of the test organisms.\n1. The method was based on the MIC (Minimum Inhibitory Concentration) determination by standard two fold dilutions prepared in an appropriate medium and tested in 96 well microtiter plates.\n2. A 4× concentration of the active from bio-surfactant stock solution [400 ppm] was prepared to dispense into […].\n3. The plates were divided into four sections. Unless otherwise stated, Columns 1-3 received a combination of the bio-surfactant and biocide, Columns 4-6 received biocide alone, and Columns 7-9 received the bio-surfactant alone. Column 10 was left empty, Column 11 was blank medium and Column 12 was medium plus the suspension of the organism.\n5. One microtiter plate per test organism and per biocide was used. The dilution scheme is attached as a separate PDF file “Dilution Scheme”.\n6. 100 μL of sterile water was aliquoted into to columns 4-6, 11 and 12 with the aid of a 12-channel pipettor add 50 μL in Columns 1-3 and 7-9.\n7. Dispensed 50 μL of the 8× stock solution of an appropriate biocide (MIT, BIT or Kathon) in Row A Columns 1-3\n8. After mixing with the aid of the multichannel pipettor, 50 μL from the row A wells were transferred to 2nd row [B] wells and after mixing, 50 μL transferred to row C and, the operations were repeated down to row […] and 50 μL from H row (the last row) were discarded.\n9. Make 4× stock solution [400 ppm] of each of the bio-surfactants. Dispensed 50 μL of bio-surfactant in 4 different 96 well plates in Columns 7-9 in each of the respective plates.\n10. In wells 4-6, 100 μL of individual biocides at 4× concentration were added to the top row A, then serially diluted down to row H while discarding the final 100 μL from row H.\n11. Columns 1-3 and 7-9 received 50 μL of 4× bio-surfactant.\n12. In a separate tube, prepared bacterial inoculums from 24 hr grown cultures by suspending the cells in 2× Tryptic Soy Broth medium for bacteria.\n13. The bacterial inocula were adjusted to 5-6 logs cfu/ml by measuring the turbidity.\n14. With an aid of the multichannel pipettor, aliquots of 100 μL organisms were dispensed into each well except for Column 11 in which blank medium was added.\n15. Incubated the plates at 35 Celsius degrees for 24 hours for bacterial growth\n16. Made visual recordings of positive or negative growth in wells. Measured the absorbance at 660 nm and assessed viability via addition of resazurin dye. Note: for bacterial growth, 10 μL of dye Resazurin stock [250 mg/50 mL] was added to determine the positive and negative growths as determined by color change from blue to pink. […]",
  "note": "“And” between values parts separate entries of the source, which are not always exact repeats. Equal entries are not always repeated. Where two headings read alike, the source gives them in different places.",
  "data": [
    {"smiles": "O=c1[nH]sc2ccccc12", "note": "[BIT, 1,2-benzisothiazolin-3-one]", "values": [
      {"measurement": "MIC", "setting": "ATCC9027, biocide alone, Di-Rhamnolipid 95% series, read-out: MIC w/o BS", "result": 25, "unit": "µg/mL"},
      {"measurement": "MIC", "setting": "ATCC9027, biocide alone, Mono + Di Rhamnolipid 95% series, read-out: MIC w/o BS", "result": 25, "unit": "µg/mL"},
      {"measurement": "MIC", "setting": "ATCC9027, biocide alone, Mono-Rhamnolipid 95% series, read-out: MIC w/o BS", "result": 25, "unit": "µg/mL"},
      {"measurement": "MIC", "setting": "ATCC9027, biocide alone, Natural Saponin series, read-out: MIC w/o BS", "result": 25, "unit": "µg/mL"},
      {"measurement": "MIC", "setting": "ATCC9027, with Di-Rhamnolipid 95% (50 ppm), read-out: MIC with BS", "result": 12.5, "unit": "µg/mL"},
      {"measurement": "MIC", "setting": "ATCC9027, with Mono + Di Rhamnolipid 95% (50 ppm), read-out: MIC with BS", "result": 12.5, "unit": "µg/mL"},
      {"measurement": "MIC", "setting": "ATCC9027, with Mono-Rhamnolipid 95% (50 ppm), read-out: MIC with BS", "result": 12.5, "unit": "µg/mL"},
      {"measurement": "MIC", "setting": "ATCC9027, with Natural Saponin (Purchased), 50 ppm active, read-out: MIC with BS", "result": "> 200", "unit": "µg/mL"},
      {"measurement": "microbial growth (absorbance at 660 nm)", "setting": "PPM 1.56", "result": "0.046 and 0.048 and 0.047"},
      {"measurement": "microbial growth (absorbance at 660 nm)", "setting": "PPM 3.13", "result": "0.046 and 0.047 and 0.048"},
      {"measurement": "microbial growth (absorbance at 660 nm)", "setting": "PPM 6.25", "result": "0.047 and 0.048"},
      {"measurement": "microbial growth (absorbance at 660 nm)", "setting": "PPM 50", "result": "1.278 and 1.284 and 1.285"},
      {"measurement": "microbial growth (absorbance at 660 nm)", "setting": "PPM 100", "result": "1.339 and 1.313 and 1.302"},
      {"measurement": "microbial growth (absorbance at 660 nm)", "setting": "PPM 200", "result": "1.371 and 1.379"}
    ]},
    {"smiles": "Cn1sccc1=O", "note": "[MIT, 2-methyl-4-isothiazolin-3-one]", "values": [
      {"measurement": "MIC", "setting": "ATCC9027, read-out: MIC w/o BS, biocide alone, Di-Rhamnolipid 95% series", "result": 12.5, "unit": "µg/mL"},
      {"measurement": "MIC", "setting": "ATCC9027, read-out: MIC w/o BS, biocide alone, Mono + Di Rhamnolipid 95% series", "result": 12.5, "unit": "µg/mL"},
      {"measurement": "MIC", "setting": "ATCC9027, read-out: MIC w/o BS, biocide alone, Mono-Rhamnolipid 95% series", "result": 12.5, "unit": "µg/mL"},
      {"measurement": "MIC", "setting": "ATCC9027, read-out: MIC w/o BS, biocide alone, Natural Saponin series", "result": 12.5, "unit": "µg/mL"},
      {"measurement": "MIC", "setting": "ATCC9027, read-out: MIC with BS, with Di-Rhamnolipid 95% (50 ppm)", "result": 12.5, "unit": "µg/mL"},
      {"measurement": "MIC", "setting": "ATCC9027, read-out: MIC with BS, with Mono + Di Rhamnolipid 95% (50 ppm)", "result": 6.5, "unit": "µg/mL"},
      {"measurement": "MIC", "setting": "ATCC9027, read-out: MIC with BS, with Mono-Rhamnolipid 95% (50 ppm)", "result": 6.5, "unit": "µg/mL"},
      {"measurement": "MIC", "setting": "ATCC9027, read-out: MIC with BS, with Natural Saponin (Purchased), 50 ppm active", "result": "> 100", "unit": "µg/mL"}
    ]}
  ]
}
